Biological target: T1, Siglec-7 (Homo sapiens, UniProt Q9Y286)
T1 construct: gene SIGLEC7; recombinant Siglec-7-Fc soluble protein
Experiment: concentration-independent native mass spectrometry (COIN-CaR-ESI-MS)
Assay type: binding

T1 sequence (Q9Y286 19-353 limits assumed): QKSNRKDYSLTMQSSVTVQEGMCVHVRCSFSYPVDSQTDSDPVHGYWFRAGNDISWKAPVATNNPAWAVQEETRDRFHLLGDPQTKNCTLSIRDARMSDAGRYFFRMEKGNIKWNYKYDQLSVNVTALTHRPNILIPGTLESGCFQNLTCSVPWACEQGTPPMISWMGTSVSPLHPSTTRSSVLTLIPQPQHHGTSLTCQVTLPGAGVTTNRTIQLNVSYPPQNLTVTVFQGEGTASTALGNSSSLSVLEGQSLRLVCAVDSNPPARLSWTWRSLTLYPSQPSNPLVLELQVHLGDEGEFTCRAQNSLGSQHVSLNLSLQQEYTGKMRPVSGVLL

CC(=O)N[C@H]1[C@@H](OCCNC(=O)OCc2ccccc2)O[C@H](CO)[C@H](O)[C@@H]1O[C@@H]1O[C@H](CO)[C@H](O)[C@H](O[C@]2(C(=O)O)C[C@H](O)[C@@H](NC(C)=O)[C@H]([C@H](O)[C@H](O)CO)O2)[C@H]1O [compound 14, 2-(N-benzyloxycarbonylamino)ethyl 5 acetamido-3,5-dideoxy-D-glycero-α-D-galacto-nonulopyranosyl-(2–3)-[(β-D-galactopyranosyl)]-(1–3)-2-acetamido-2-deoxy-α-D-galactopyranoside]
Kd: 88 ± 31 µM

CC(=O)N[C@H]1[C@@H](OCCNC(=O)OCc2ccccc2)O[C@H](CO)[C@H](O)[C@@H]1O[C@@H]1O[C@H](CO)[C@H](O)[C@H](O[C@]2(C(=O)O)C[C@H](N=[N+]=[N-])[C@@H](NC(C)=O)[C@H]([C@H](O)[C@H](O)CO)O2)[C@H]1O [compound 13, 2-(N-benzyloxycarbonylamino)ethyl 5-acetamido-4-azido-3,4,5 trideoxy-D-glycero-α-D-galacto-nonulopyranosyl-(2–3)-[β-D-galactopyranosyl]-(1–3)-2 acetamido-2-deoxy-α-D-galactopyranoside]
Kd: 115 ± 44 µM

— article PMC12038855, “Synthesis of 4-azido sialic acid for testing against Siglec-7 and in metabolic oligosaccharide engineering” (RSC Chemical Biology, 2025)
